Data: PubChem BioAssay (NCI)
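Five concentrations, 48 hours, 96-well plates. GI50 marks 50% less growth. At the TGI there is no net growth.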

What was measured:
Test in all cases: DTP human tumour cell line panel, 48 h
T-47D breast = test system: T-47D breast
NCI-H23 lung = test system: NCI-H23 lung
SW-620 colon = test system: SW-620 colon
A498 renal = test system: A498 renal
HOP-92 NSCLC = test system: HOP-92 NSCLC
MDA-MB-435 = test system: MDA-MB-435
OVCAR-3 ovarian = test system: OVCAR-3 ovarian
DU-145 prostate = test system: DU-145 prostate
MALME-3M melanoma = test system: MALME-3M melanoma
TK-10 renal = test system: TK-10 renal
HCT-15 colon = test system: HCT-15 colon
A549 NSCLC = test system: A549 NSCLC
BT-549 breast = test system: BT-549 breast
U251 CNS = test system: U251 CNS
ACHN renal = test system: ACHN renal
CAKI-1 renal = test system: CAKI-1 renal
OVCAR-4 ovarian = test system: OVCAR-4 ovarian
COLO 205 colon = test system: COLO 205 colon
RXF 393 renal = test system: RXF 393 renal
RPMI-8226 leukemia = test system: RPMI-8226 leukemia
SK-MEL-5 melanoma = test system: SK-MEL-5 melanoma
NCI-H460 lung = test system: NCI-H460 lung
SF-295 CNS = test system: SF-295 CNS
NCI/ADR-RES ovarian = test system: NCI/ADR-RES ovarian
HCT-116 colon = test system: HCT-116 colon
SK-OV-3 ovarian = test system: SK-OV-3 ovarian
CCRF-CEM leukemia = test system: CCRF-CEM leukemia
SF-268 CNS = test system: SF-268 CNS
HOP-62 NSCLC = test system: HOP-62 NSCLC
UO-31 renal = test system: UO-31 renal
IGROV1 ovarian = test system: IGROV1 ovarian
MOLT-4 leukemia = test system: MOLT-4 leukemia
OVCAR-8 ovarian = test system: OVCAR-8 ovarian
SN12C renal = test system: SN12C renal
SR leukemia = test system: SR leukemia
PC-3 prostate = test system: PC-3 prostate
786-0 renal = test system: 786-0 renal
MCF7 breast = test system: MCF7 breast
SF-539 CNS = test system: SF-539 CNS
NCI-H522 lung = test system: NCI-H522 lung
SNB-75 CNS = test system: SNB-75 CNS
K-562 leukemia = test system: K-562 leukemia
NCI-H226 lung = test system: NCI-H226 lung
EKVX NSCLC = test system: EKVX NSCLC
KM12 colon = test system: KM12 colon
OVCAR-5 ovarian = test system: OVCAR-5 ovarian
SK-MEL-2 melanoma = test system: SK-MEL-2 melanoma
HCC-2998 colon = test system: HCC-2998 colon
HL-60(TB) leukemia = test system: HL-60(TB) leukemia
M14 melanoma = test system: M14 melanoma
HT29 colon = test system: HT29 colon
MDA-MB-231 breast = test system: MDA-MB-231 breast
LOX IMVI melanoma = test system: LOX IMVI melanoma
HS 578T breast = test system: HS 578T breast
SNB-19 CNS = test system: SNB-19 CNS

CO[C@H](C(=O)[C@@H](O)[C@@H](C)O)[C@@H]1Cc2cc3cc(O[C@H]4C[C@@H](O[C@H]5C[C@@H](O)[C@H](O)C(C)O5)[C@H](O)C(C)(O)O4)cc(O)c3c(O)c2C(=O)[C@H]1O[C@H]1C[C@@H](O[C@H]2C[C@@H](O[C@H]3C[C@@H](OC)[C@H](O)C(C)O3)[C@@H](O)C(C)O2)[C@H](O)C(C)O1 (stereo not given in full)
GI50 (T-47D breast): 447 nM | TGI (T-47D breast): > 16800 nM | GI50 (NCI-H23 lung): 831 nM | TGI (NCI-H23 lung): > 16800 nM | GI50 (SW-620 colon): 1310 nM | TGI (SW-620 colon): > 16800 nM | GI50 (A498 renal): 369 nM | TGI (A498 renal): 1290 nM | GI50 (HOP-92 NSCLC): 528 nM | TGI (HOP-92 NSCLC): 8660 nM | GI50 (MDA-MB-435): 895 nM | TGI (MDA-MB-435): > 16800 nM | GI50 (OVCAR-3 ovarian): 956 nM | TGI (OVCAR-3 ovarian): > 16800 nM | GI50 (DU-145 prostate): 976 nM | TGI (DU-145 prostate): > 16800 nM | GI50 (MALME-3M melanoma): 212 nM | TGI (MALME-3M melanoma): 14000 nM | GI50 (TK-10 renal): 2800 nM | TGI (TK-10 renal): > 16800 nM | GI50 (HCT-15 colon): > 16800 nM | TGI (HCT-15 colon): > 16800 nM | GI50 (A549 NSCLC): 828 nM | TGI (A549 NSCLC): > 16800 nM | GI50 (BT-549 breast): 2040 nM | TGI (BT-549 breast): > 16800 nM | GI50 (U251 CNS): 387 nM | TGI (U251 CNS): > 16800 nM | GI50 (ACHN renal): 3680 nM | TGI (ACHN renal): > 16800 nM | GI50 (CAKI-1 renal): > 16800 nM | TGI (CAKI-1 renal): > 16800 nM | GI50 (OVCAR-4 ovarian): 1350 nM | TGI (OVCAR-4 ovarian): > 16800 nM | GI50 (COLO 205 colon): 720 nM | TGI (COLO 205 colon): 4940 nM | GI50 (RXF 393 renal): 1270 nM | TGI (RXF 393 renal): 7940 nM | GI50 (RPMI-8226 leukemia): 833 nM | TGI (RPMI-8226 leukemia): > 16800 nM | GI50 (SK-MEL-5 melanoma): 509 nM | TGI (SK-MEL-5 melanoma): 2970 nM | GI50 (NCI-H460 lung): 469 nM | TGI (NCI-H460 lung): > 16800 nM | GI50 (SF-295 CNS): 666 nM | TGI (SF-295 CNS): > 16800 nM | GI50 (NCI/ADR-RES ovarian): > 16800 nM | TGI (NCI/ADR-RES ovarian): > 16800 nM | GI50 (HCT-116 colon): 542 nM | TGI (HCT-116 colon): > 16800 nM | GI50 (SK-OV-3 ovarian): 671 nM | TGI (SK-OV-3 ovarian): > 16800 nM | GI50 (CCRF-CEM leukemia): 5000 nM | TGI (CCRF-CEM leukemia): > 16800 nM | GI50 (SF-268 CNS): 726 nM | TGI (SF-268 CNS): > 16800 nM | GI50 (HOP-62 NSCLC): 521 nM | TGI (HOP-62 NSCLC): > 16800 nM | GI50 (UO-31 renal): 4060 nM | TGI (UO-31 renal): > 16800 nM | GI50 (IGROV1 ovarian): 809 nM | TGI (IGROV1 ovarian): > 16800 nM | GI50 (MOLT-4 leukemia): 1200 nM | TGI (MOLT-4 leukemia): > 16800 nM | GI50 (OVCAR-8 ovarian): 1550 nM | TGI (OVCAR-8 ovarian): > 16800 nM | GI50 (SN12C renal): 868 nM | TGI (SN12C renal): > 16800 nM | GI50 (SR leukemia): 250 nM | TGI (SR leukemia): > 16800 nM | GI50 (PC-3 prostate): 1420 nM | TGI (PC-3 prostate): > 16800 nM | GI50 (786-0 renal): 1510 nM | TGI (786-0 renal): > 16800 nM | GI50 (MCF7 breast): 185 nM | TGI (MCF7 breast): > 16800 nM | GI50 (SF-539 CNS): 658 nM | TGI (SF-539 CNS): 12200 nM | GI50 (NCI-H522 lung): 354 nM | TGI (NCI-H522 lung): 14800 nM | GI50 (SNB-75 CNS): 63 nM | TGI (SNB-75 CNS): 6840 nM | GI50 (K-562 leukemia): 951 nM | TGI (K-562 leukemia): > 16800 nM | GI50 (NCI-H226 lung): 796 nM | TGI (NCI-H226 lung): 5340 nM | GI50 (EKVX NSCLC): 1500 nM | TGI (EKVX NSCLC): > 16800 nM | GI50 (KM12 colon): 786 nM | TGI (KM12 colon): > 16800 nM | GI50 (OVCAR-5 ovarian): 2950 nM | TGI (OVCAR-5 ovarian): > 16800 nM | GI50 (SK-MEL-2 melanoma): 704 nM | TGI (SK-MEL-2 melanoma): 5180 nM | GI50 (HCC-2998 colon): 1920 nM | TGI (HCC-2998 colon): > 16800 nM | GI50 (HL-60(TB) leukemia): 11200 nM | TGI (HL-60(TB) leukemia): > 16800 nM | GI50 (M14 melanoma): 2560 nM | TGI (M14 melanoma): > 16800 nM | GI50 (HT29 colon): 1160 nM | TGI (HT29 colon): > 16800 nM | GI50 (MDA-MB-231 breast): 1890 nM | TGI (MDA-MB-231 breast): > 16800 nM | GI50 (LOX IMVI melanoma): 384 nM | TGI (LOX IMVI melanoma): > 16800 nM | GI50 (HS 578T breast): 708 nM | TGI (HS 578T breast): > 16800 nM | GI50 (SNB-19 CNS): 761 nM | TGI (SNB-19 CNS): > 16800 nM
